The source of these data is US12569534B2, “Therapeutic nanoparticles by coacervate complexation and their use for treating bacteria” (priority 2018, dated 2026).

{Cy5} = Cy5 fluorescent dye; d = 2'-deoxy (DNA); m = 2'-O-methyl Some results are limits rather than exact numbers.

The test system of this data set is E. Coli ATCC 25922. As to the kind of experiment: MIC and MBC of different treatments, Example 3. The format is cell-based. Here is the method:
Reference bacterial stains were purchased from ATCC. Clinical isolates of carbapenem-resistant bacteria were obtained from National Health Research Institutes (NHRI) and Tri-Service General Hospital (TSGH). MIC is defined as the lowest concentration of antibiotics required to inhibit the growth of bacteria. MBC is defined as the lowest concentration of antibiotics required to eradicate microorganisms. The MICs of CS and the CS NPs were determined using a broth microdilution method. Bacterial suspensions were adjusted to a turbidity of McFarland 0.5±0.05 and cultured overnight with different concentrations of CS or CS NPs. A control group without antimicrobial treatment was prepared as a reference. Following overnight incubation, solution turbidity was determined by visual inspection. Culture wells with no observable turbidity were further sub-cultured for MBC evaluation. Solutions from the clear wells were deposited onto an agar plate and cultured overnight to determine the MBCs.

Consider “ASOftsZ: antisense oligonucleotide of ftsZ DNA fragment; Cy5-mCmCmAmU-TG-GTT-CAA-A-mCmAmUmA, m_: 2′ O-methyl bases (antisense CCAUTGGTTCAAACAUA; sugars from the 5' end m4 d9 m4, 5' {Cy5}, backbone and methylation of C not given here)”, for which the MBC is more than 2 µg/mL and the MIC was more than 2 µg/mL.
